From PubChem BioAssay AID330 (DTP/NCI, 2004)
“And” between values parts separate entries of the source, which are not always exact repeats. Equal values may be shown once. Toxic doses and inconclusive results are not listed. How the source made its calls: active means survival T/C of 150% or more; inactive means T/C below 125% in these data. Peptide text beside a SMILES is read from it. * marks the point of attachment. Boc = CC(C)(C)OC(=O)*; NHNH2 = NN*

Tested on: P388 leukemia ip, CD2F1 mice, survival T/C
Experiment: NCI In Vivo Anticancer Drug Screen. Data for tumor model P388 Leukemia (intraperitoneal) in CD2F1 (CDF1) mice
Details: endpoint: median survival time, higher = longer survival
Procedure, shortened: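 Mice carrying the transplanted tumor received test compound or vehicle. Survival was recorded in each group, and the value is the treated-group measurement divided by that of the vehicle-treated control group.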

[1] = dose: 100.0 mg/kg/injection, schedule: Q04DX003 (ip), vehicle: saline
[2] = dose: 200.0 mg/kg/injection, schedule: Q04DX003 (ip), vehicle: saline
[3] = dose: 400.0 mg/kg/injection, schedule: Q04DX003 (ip), vehicle: saline
[4] = dose: 50.0 mg/kg/injection, schedule: Q01DX009 (ip), vehicle: saline
[5] = dose: 100.0 mg/kg/injection, schedule: Q01DX009 (ip), vehicle: saline
[6] = dose: 200.0 mg/kg/injection, schedule: Q01DX009 (ip), vehicle: saline
[7] = dose: 50.0 mg/kg/injection, schedule: Q01DX009 (ip), vehicle: Klucel (hydroxypropylcellulose) (HPC)
[8] = dose: 100.0 mg/kg/injection, schedule: Q01DX009 (ip), vehicle: Klucel (hydroxypropylcellulose) (HPC)
[9] = dose: 200.0 mg/kg/injection, schedule: Q01DX009 (ip), vehicle: Klucel (hydroxypropylcellulose) (HPC)

Measured: T/C

C[C@@H]1C(=O)CC23COC(=O)C2=CCCC3[C@@]1(C)CCC1COC(=O)C1 (some centres not stated)
inactive: dose: 12.5 mg/kg/injection, schedule: Q01DX005 (ip), vehicle: distilled water + alcohol 100 % of control | dose: 25.0 mg/kg/injection, schedule: Q01DX005 (ip), vehicle: distilled water + alcohol 100 % of control | dose: 50.0 mg/kg/injection, schedule: Q01DX005 (ip), vehicle: distilled water + alcohol 106 % of control | dose: 60.0 mg/kg/injection, schedule: Q01DX005 (ip), vehicle: distilled water + alcohol 101 % of control | dose: 100.0 mg/kg/injection, schedule: Q01DX005 (ip), vehicle: distilled water + alcohol 107 % of control | dose: 120.0 mg/kg/injection, schedule: Q01DX005 (ip), vehicle: distilled water + alcohol 108 % of control | dose: 240.0 mg/kg/injection, schedule: Q01DX005 (ip), vehicle: distilled water + alcohol 110 % of control

Cc1cnc(C)n2cnnc12
inactive: [1] 93 % of control | [2] 95 % of control | [3] 98 % of control

NC(=O)/C=C1\NC(=O)CS1
inactive: dose: 100.0 mg/kg/injection, schedule: Q01DX009 (ip), vehicle: saline sonified 95 % of control | dose: 200.0 mg/kg/injection, schedule: Q01DX009 (ip), vehicle: saline sonified 90 % of control | dose: 400.0 mg/kg/injection, schedule: Q01DX009 (ip), vehicle: saline sonified 95 % of control

O=c1cncc[nH]1
inactive: dose: 12.5 mg/kg/injection, schedule: Q01DX009 (ip), vehicle: saline 105 % of control | dose: 25.0 mg/kg/injection, schedule: Q01DX009 (ip), vehicle: saline 108 % of control | [4] 108 % of control | [5] 109 % of control | [6] 96 % of control

Cc1c2ccn3c(=O)c4ccccc4cc3c2c(C)c2c1[nH]c1ccccc12
inactive: dose: 0.78 mg/kg/injection, schedule: Q04DX003 (ip), vehicle: distilled water + Tween-80 89 % of control | dose: 1.56 mg/kg/injection, schedule: Q04DX003 (ip), vehicle: distilled water + Tween-80 87 % of control | dose: 200.0 mg/kg/injection, schedule: Q04DX003 (ip), vehicle: distilled water + Tween-80 95 % of control

C/C(=N\NC(=S)N1CCN(C2CCCCCC2)CC1)c1ccccn1
inactive: dose: 1.57 mg/kg/injection, schedule: Q01DX005 (ip), vehicle: saline with Tween-80 96 % of control | dose: 3.13 mg/kg/injection, schedule: Q01DX005 (ip), vehicle: saline with Tween-80 100 % of control | dose: 6.25 mg/kg/injection, schedule: Q01DX005 (ip), vehicle: saline with Tween-80 114 % of control and 120 % of control

O=c1c2ccccc2nc(-c2ccccc2Cl)n1/N=C/c1cccc([N+](=O)[O-])c1
inactive: dose: 0.78 mg/kg/injection, schedule: Q01DX009 (ip), vehicle: saline with Tween-80 99 % of control | dose: 1.56 mg/kg/injection, schedule: Q01DX009 (ip), vehicle: saline with Tween-80 92 % of control | dose: 3.12 mg/kg/injection, schedule: Q01DX009 (ip), vehicle: saline with Tween-80 91 % of control

COC(=O)c1nc(=S)[nH]c(C(=O)OC)c1C(=O)c1ccc(OC)cc1
inactive: dose: 60.0 mg/kg/injection, schedule: Q01DX005 (ip), vehicle: saline 100 % of control | dose: 120.0 mg/kg/injection, schedule: Q01DX005 (ip), vehicle: saline 96 % of control | dose: 240.0 mg/kg/injection, schedule: Q01DX005 (ip), vehicle: saline 103 % of control

O=C1NC(c2cccc(OCc3ccccc3)c2)Nc2ccccc21 (configuration not stated)
inactive: dose: 3.13 mg/kg/injection, schedule: Q01DX009 (ip), vehicle: Klucel (hydroxypropylcellulose) (HPC) 94 % of control | dose: 6.25 mg/kg/injection, schedule: Q01DX009 (ip), vehicle: Klucel (hydroxypropylcellulose) (HPC) 107 % of control | dose: 12.5 mg/kg/injection, schedule: Q01DX009 (ip), vehicle: Klucel (hydroxypropylcellulose) (HPC) 102 % of control | dose: 25.0 mg/kg/injection, schedule: Q01DX009 (ip), vehicle: Klucel (hydroxypropylcellulose) (HPC) 100 % of control | [7] 109 % of control | [8] 115 % of control | [9] 102 % of control

COC1CCC(NC(=O)N(N=O)C2CCC(OC)CC2)CC1 (configuration not stated)
inactive: dose: 25.0 mg/kg/injection, schedule: Q01DX001 (ip), vehicle: distilled water + Tween-80 109 % of control | dose: 50.0 mg/kg/injection, schedule: Q01DX001 (ip), vehicle: distilled water + Tween-80 100 % of control | dose: 100.0 mg/kg/injection, schedule: Q01DX001 (ip), vehicle: distilled water + Tween-80 100 % of control | dose: 200.0 mg/kg/injection, schedule: Q01DX001 (ip), vehicle: distilled water + Tween-80 105 % of control

O=C1NC(O)c2cccc([N+](=O)[O-])c2O1 (configuration not stated)
inactive: dose: 50.0 mg/kg/injection, schedule: Q01DX005 (ip), vehicle: saline with Tween-80 100 % of control | dose: 100.0 mg/kg/injection, schedule: Q01DX005 (ip), vehicle: saline with Tween-80 105 % of control | dose: 200.0 mg/kg/injection, schedule: Q01DX005 (ip), vehicle: saline with Tween-80 110 % of control

CCCC(=O)C(=O)c1ccc(O)cc1O
inactive: [7] 108 % of control | [8] 116 % of control | [9] 119 % of control

O=C1c2ccccc2C(=O)N1C1CC(=O)n2c1nc1ccccc12 (configuration not stated)
inactive: dose: 60.0 mg/kg/injection, schedule: Q01DX005 (ip), vehicle: saline with Tween-80 101 % of control | dose: 120.0 mg/kg/injection, schedule: Q01DX005 (ip), vehicle: saline with Tween-80 95 % of control | dose: 240.0 mg/kg/injection, schedule: Q01DX005 (ip), vehicle: saline with Tween-80 95 % of control

O=C1CNC(=O)CN1
inactive: [4] 96 % of control | [5] 90 % of control | [1] 100 % of control | [6] 97 % of control | [2] 91 % of control | [3] 100 % of control

COC(=O)/C=C/CCOC1CCCCO1 (configuration not stated)
inactive: dose: 50.0 mg/kg/injection, schedule: Q01DX009 (ip), vehicle: other 108 % of control | dose: 100.0 mg/kg/injection, schedule: Q01DX009 (ip), vehicle: other 112 % of control | dose: 200.0 mg/kg/injection, schedule: Q01DX009 (ip), vehicle: other 107 % of control

CC(C)(C)OC(=O)NC(Cc1c[nH]c2ccccc12)C(=O)NC(Cc1ccccc1)C(=O)NN (stereo not drawn) (Boc-Trp-Phe-NHNH2; configuration not given here)
inactive: [7] 92 % of control | [8] 88 % of control | [9] 91 % of control

O=C1OC(=O)C2c3ccccc3C=CC12 (configuration not stated)
inactive: dose: 25.0 mg/kg/injection, schedule: Q01DX001 (ip), vehicle: saline with Tween-80 98 % of control | dose: 50.0 mg/kg/injection, schedule: Q01DX001 (ip), vehicle: saline with Tween-80 98 % of control | dose: 100.0 mg/kg/injection, schedule: Q01DX001 (ip), vehicle: saline with Tween-80 104 % of control | dose: 200.0 mg/kg/injection, schedule: Q01DX001 (ip), vehicle: saline with Tween-80 120 % of control | dose: 400.0 mg/kg/injection, schedule: Q01DX001 (ip), vehicle: saline with Tween-80 113 % of control

C[CH2][Sn]([CH2]C)([N]=C=S)[N]=C=S.c1ccc2nc(-c3ccc4ccccc4n3)ccc2c1
inactive: dose: 60.0 mg/kg/injection, schedule: Q01DX005 (ip), vehicle: Klucel (hydroxypropylcellulose) (HPC) 95 % of control | dose: 120.0 mg/kg/injection, schedule: Q01DX005 (ip), vehicle: Klucel (hydroxypropylcellulose) (HPC) 96 % of control | dose: 240.0 mg/kg/injection, schedule: Q01DX005 (ip), vehicle: Klucel (hydroxypropylcellulose) (HPC) 98 % of control

CCOc1ccc(N=Nc2c(C)nn(C(N)=S)c2OCC)cc1
inactive: dose: 15.0 mg/kg/injection, schedule: Q01DX005 (ip), vehicle: Klucel (hydroxypropylcellulose) (HPC) 100 % of control | dose: 30.0 mg/kg/injection, schedule: Q01DX005 (ip), vehicle: Klucel (hydroxypropylcellulose) (HPC) 97 % of control
